Entries after “also recorded” stand apart in the source; their conditions may differ. Residues, ends and D or L forms follow the SMILES beside them. No end group written: not given here.

The subject of the first assay is CCl4-treated mice. Put plainly: CCl4 induced liver fibrosis in mice, collagen in the liver as marker of matrix accumulation. The class given is in vivo. The conditions noted are these: Example 2, Figure 1, CCl4 for 6 weeks, peptides 25 mg/kg/mouse/day intraperitoneal, daily from day 32 for 10 days. On the procedure: Figure 1 Prevention of fibrosis progression by proline-containing cyclic and amidated linear peptides. Mice were injected for 6 weeks with CCl4 in order to induce liver fibrosis. Starting on day 32 the mice received daily intraperitoneal injections of 25 mg/kg/mouse/day of the peptides in 0.9% NaCl for a total of 10 days. CCl4-treated mice also received NaCl 0.9%. The healthy control group (CT) only received 0.9% NaCl. N= 4/ 10/ 8/ 5/ 10/ 8/ 11/ 7 in two experiments. The following peptides were tested on CCl4-treated mice: cyclic Pro-Gly-Leu-Gln-Gly-Glu (Cyclic PGLQGE), and compared to two controls: cyclic Pro-Gly-Leu-Asn-Gly-Glu (Cyclic CT1+P: cyclic PGLNGE) and cyclic Pro-Gly-Leu-Hyp-Gly-Glu (Cyclic CT2+P: cyclic PGLOGE). Linear Gly-Leu-Gln-Gly-Glu-NH2 (Linear GLQGE-NH2) was also tested and compared to two controls: linear Gly-Leu-Asn-Gly-Glu-NH2 (Linear CT1-NH2: linear GLNGE-NH2) and linear Gly-Leu-Hyp-Gly-Glu-NH2 (Linear CT2-NH2: linear GLOGE-NH2). *p<0.05. Evaluated by t-test. Data presented as mean +/- SEM. Figure 2 Prevention of fibrosis progression by cyclic peptides and acetylated linear peptides. Mice were injected for 6 weeks with CCl4 in order to induce liver fibrosis. Starting on day 32 the mice received daily intraperitoneal injections of 25 mg/kg/mouse/day of the peptides in 0.9% NaCl for a total of 10 days. CCl4-treated mice also received NaCl 0.9%. The healthy control group (CT) only received 0.9% NaCl. N= 5/ 18/ 9/ 9/ 6/ 5/ 4/ 4 in two experiments. The following peptides were tested on CCl4-treated mice: cyclic Gly-Leu-Gln-Gly-Glu (Cyclic GLQGE), and compared to two controls: cyclic Gly-Leu-Asn-Gly-Glu (Cyclic CT1: cyclic GLNGE) and cyclic Gly-Leu-Hyp-Gly-Glu (Cyclic CT2: cyclic GLOGE). Linear Ac-Gly-Leu-Gln-Gly-Glu (Linear Ac-GLQGE) was also tested and compared to two controls: linear Ac-Gly-Leu-Asn-Gly-Glu (Linear Ac-CT1: linear Ac-GLNGE) and linear Ac-Gly-Leu-Hyp-Gly-Glu (Linear Ac-CT2: linear Ac-GLOGE). *p<0.05, **p<0.005. Evaluated by t-test. Data presented as mean +/- SEM.
Mice were injected for 6 weeks with CCl4 in order to induce liver fibrosis. Starting on day 32 the mice received daily intraperitoneal injections of the peptides at a final dose of 25 mg/kg/mouse/day diluted in NaCl 0.9% for a total of 10 days. In these experiments, the following peptides were tested: cyclic peptide Pro-Gly-Leu-Gln-Gly-Glu, cyclic peptide Pro-Gly-Leu-Asn-Gly-Glu, cyclic peptide Pro-Gly-Leu-Hyp-Gly-Glu, linear peptide Gly-Leu-Gln-Gly-Glu-NH2, linear peptide Gly-Leu-Asn-Gly-Glu-NH2, linear peptide Gly-Leu-Hyp-Gly-Glu-NH2.
Mice were injected for 6 weeks with CCl4 in order to induce liver fibrosis. Starting on day 32 the mice received daily intraperitoneal injections of the peptides at a final dose of 25 mg/kg/mouse/day diluted in NaCl 0.9% for a total of 10 days. In these experiments, the following peptides were tested: cyclic peptide Gly-Leu-Gln-Gly-Glu, cyclic peptide Gly-Leu-Asn-Gly-Glu, cyclic peptide Gly-Leu-Hyp-Gly-Glu, linear peptide Ac-Gly-Leu-Gln-Gly-Glu, linear peptide Ac-Gly-Leu-Asn-Gly-Glu, linear peptide Ac-Gly-Leu-Hyp-Gly-Glu.
For `CC(C)C[C@@H]1NC(=O)CNC(=O)[C@@H]2CCCN2C(=O)[C@H](CCC(=O)O)NC(=O)CNC(=O)[C@H](CCC(N)=O)NC1=O` [Cyclic PGLQGE, Pro-Gly-Leu-Gln-Gly-Glu] (HELM PEPTIDE1{E.P.G.L.Q.G}$PEPTIDE1,PEPTIDE1,1:R1-6:R2$$$V2.0), the collagen accumulation entry was “able to significantly reduce collagen accumulation”. Take `CC(C)C[C@@H]1NC(=O)CNC(=O)[C@@H]2CCCN2C(=O)[C@H](CCC(=O)O)NC(=O)CNC(=O)[C@H](CC(N)=O)NC1=O` [Cyclic CT1+P, Pro-Gly-Leu-Asn-Gly-Glu] (HELM PEPTIDE1{E.P.G.L.N.G}$PEPTIDE1,PEPTIDE1,1:R1-6:R2$$$V2.0): the collagen accumulation result is “neither the cyclic forms of the control peptides (with Pro: Pro-Gly-Leu-Asn-Gly-Glu or Pro-Gly-Leu-Hyp-Gly-Glu) nor the linear forms of the control peptides Gly-Leu-Asn-Gly-Glu-NH2 and Gly-Leu-Hyp-Gly-Glu-NH2 were able to reduce collagen amount in the liver”. For `CC(C)C[C@@H]1NC(=O)CNC(=O)[C@@H]2CCCN2C(=O)[C@H](CCC(=O)O)NC(=O)CNC(=O)[C@@H]2C[C@@H](O)CN2C1=O` [Cyclic CT2+P, Pro-Gly-Leu-Hyp-Gly-Glu] (HELM PEPTIDE1{E.P.G.L.[Hyp].G}$PEPTIDE1,PEPTIDE1,1:R1-6:R2$$$V2.0), the collagen accumulation entry is “neither the cyclic forms of the control peptides (with Pro: Pro-Gly-Leu-Asn-Gly-Glu or Pro-Gly-Leu-Hyp-Gly-Glu) nor the linear forms of the control peptides Gly-Leu-Asn-Gly-Glu-NH2 and Gly-Leu-Hyp-Gly-Glu-NH2 were able to reduce collagen amount in the liver”. Regarding “GLQGE-NH2 [Linear GLQGE-NH2, Gly-Leu-Gln-Gly-Glu-NH2]”, the collagen accumulation entry was “able to significantly reduce CCl4-induced collagen accumulation”.

The assay is the same for the next values; noted with them: Example 3, Figure 2, CCl4 for 6 weeks, peptides 25 mg/kg/mouse/day intraperitoneal, daily from day 32 for 10 days.
Regarding “Ac-GLQGE [Linear Ac-GLQGE, Ac-Gly-Leu-Gln-Gly-Glu]”, the collagen accumulation result is reported as “able to significantly reduce CCl4-induced collagen accumulation”. On the same count and under the same terms, next, `CC(C)C[C@@H]1NC(=O)CNC(=O)[C@H](CCC(=O)O)NC(=O)CNC(=O)[C@H](CCC(N)=O)NC1=O` [Cyclic GLQGE, Gly-Leu-Gln-Gly-Glu] (HELM PEPTIDE1{E.G.L.Q.G}$PEPTIDE1,PEPTIDE1,1:R1-5:R2$$$V2.0): “larger inhibitory effect compared to the linear Gly-Leu-Gln-Gly-Glu-NH2 or Ac-Gly-Leu-Gln-Gly-Glu”; `CC(=O)NCC(=O)N[C@@H](CC(C)C)C(=O)N1C[C@H](O)C[C@H]1C(=O)NCC(=O)N[C@@H](CCC(=O)O)C(=O)O` [Linear Ac-CT2, Ac-Gly-Leu-Hyp-Gly-Glu]: “neither the cyclic forms nor the linear forms of the peptides Ac-Gly-Leu-Asn-Gly-Glu and Ac-Gly-Leu-Hyp-Gly-Glu were able to reduce collagen amount in the liver”.

As for `CC(C)C[C@@H]1NC(=O)CNC(=O)[C@H](CCC(=O)O)NC(=O)CNC(=O)[C@H](CC(N)=O)NC1=O` [Cyclic CT1, Gly-Leu-Asn-Gly-Glu] (HELM PEPTIDE1{E.G.L.N.G}$PEPTIDE1,PEPTIDE1,1:R1-5:R2$$$V2.0), the collagen accumulation result is given as “failed to inhibit collagen accumulation”. With “Ac-GLNGE [Linear Ac-CT1, Ac-Gly-Leu-Asn-Gly-Glu]”, the collagen accumulation entry is “neither the cyclic forms nor the linear forms of the peptides Ac-Gly-Leu-Asn-Gly-Glu and Ac-Gly-Leu-Hyp-Gly-Glu were able to reduce collagen amount in the liver”. `CC(C)C[C@@H]1NC(=O)CNC(=O)[C@H](CCC(=O)O)NC(=O)CNC(=O)[C@@H]2C[C@@H](O)CN2C1=O` [Cyclic CT2, Gly-Leu-Hyp-Gly-Glu] (HELM PEPTIDE1{E.G.L.[Hyp].G}$PEPTIDE1,PEPTIDE1,1:R1-5:R2$$$V2.0): the collagen accumulation entry was “failed to inhibit collagen accumulation”.

Staying with this assay, now noted: Example 3, Figure 2, CCl4 for 6 weeks, peptides 25 mg/kg/mouse/day intraperitoneal, daily from day 32 for 10 days, listed as cyclic peptide Gly-Leu-Gln-Gly-Glu.
As to `CC(C)C[C@@H]1NC(=O)CNC(=O)[C@H](CCC(=O)O)NC(=O)CNC(=O)[C@H](CCC(N)=O)NC1=O` [Cyclic GLQGE, Gly-Leu-Gln-Gly-Glu] (HELM PEPTIDE1{E.G.L.Q.G}$PEPTIDE1,PEPTIDE1,1:R1-5:R2$$$V2.0), the collagen accumulation entry was “able to significantly reduce collagen accumulation; also recorded: more efficient in reducing collagen accumulation also in comparison to the cyclic peptide with proline Pro-Gly-Leu-Gln-Gly-Glu”.

The next assay concerns TGFβ. Put plainly: unstimulated TGFβ expression in murine hepatocytes (data not shown). The class given is cell-based.
Conditions: not given
Regarding `CC(C)C[C@H](NC(=O)CN)C(=O)N1C[C@H](O)C[C@H]1C(=O)NCC(=O)N[C@@H](CCC(=O)O)C(N)=O` [Linear CT2-NH2, Gly-Leu-Hyp-Gly-Glu-NH2], the “unstimulated TGFβ expression” value is “had no effect”. Still for that read-out and setting: next, “GLNGE-NH2 [Linear CT1-NH2, Gly-Leu-Asn-Gly-Glu-NH2]”: “had no effect”.

Turning to “GLQGE-NH2 [Linear GLQGE-NH2, Gly-Leu-Gln-Gly-Glu-NH2]”, the “unstimulated TGFβ expression” value is reported as “efficiently inhibits unstimulated TGFβ expression in murine hepatocytes”.

Values taken from patent publication EP3771464A1, “PEPTIDES AS INHIBITOR OF FIBROTIC MATRIX ACCUMULATION” (Max-Planck-Gesellschaft zur Förderung der Wissenschaften …, priority 2019, dated 2021).
